Test results from US20100273876A1, “ANTIBACTERIAL FORMULATION COMPRISING A DIALKYL SULPHOSUCCINATE AND A CARBANILIDE ANTIBACTERIAL AGENT” (priority 2007, published 2010).
Converted amounts (≈) assume the structure as drawn. Read-outs that look alike come from different tables or passages of the source.

Legend:
[1] = test system: Clost. difficile ATCC 7000057; experiment: (S)DDA disc diffusion; assay type: cell-based, Clostridium difficile; details: 200 μg per disc
Procedure: (§1) A sterile paper disc was impregnated with a sample of the test compound in a suitable solvent and 30 minutes allowed for the solvents to evaporate (where possible). The disc was then placed on an agar plate onto which the test micro-organism had been inoculated. The plate was then incubated under the conditions described above, following which it was examined visually for signs of microbial growth. If the test compound had antimicrobial activity, a circular zone of no growth would be obtained around the disc. The diameter of this zone of “inhibition” was measured using a ProtoCOL™ automated zone sizer (Synbiosis, Cambridge, UK). In general, a greater diameter and/or area of the zone of inhibition indicates a greater antimicrobial activity in the relevant test compound, although other factors such as test compound mobility through the agar gel may also influence the result.
(§2) Two test a compounds A and B were placed on a single paper disc and the above described DDA procedure repeated. […]
(§3) The activities of DOSS and TCC were determined, using (S)DDAs, against a panel of further test micro-organisms, namely B. cereus ATCC 11778, Bact. fragilis ATCC 25285, Clost. difficile […] and E. faecalis ATCC 29212. […]

[2] = test system: Bact. fragilis ATCC 25285; experiment: (S)DDA disc diffusion; assay type: cell-based, Bacteroides fragilis; details: 200 μg per disc
Procedure: as §1, §2, §3

Strep. mutans ATCC 25175 = experiment: (S)DDA disc diffusion; assay type: cell-based, Streptococcus mutans
Procedure: The S. mutans was cultured and maintained on Wilkins-Chalgren Anaerobe Medium (agar and broth) at pH 7.0 supplemented with 1 g/L glucose; all cultures were incubated at 37° C. for 48 h in an atmosphere containing 5% CO2.
as §1
(§4) Two test a compounds A and B were placed on a single paper disc and the above described DDA procedure repeated. An increase in diameter of the zone of inhibition, compared to the greater of the zone diameters for the two compounds individually, was taken to indicate potential antimicrobial synergy. In practical terms, an increase of greater than 5 mm could be treated as significant.
For the (S)DDA experiments; 200 μg of the DOS salts and/or the TCC were loaded onto each disc for Por. gingivalis experiments. For the Strep. mutans experiments, 200 μg of the TCC and 50 μg of DOSS were used on each disc. All the experiments were conducted in triplicate.

P. acnes NCTC 737 [3] = experiment: Minimum inhibitory concentration (MIC) assay, liquid medium; assay type: cell-based, Propionibacterium acnes
Procedure: (§5) The propionibacteria were cultured and maintained on Wilkins-Chalgren Anaerobe Medium (agar and broth) at pH 6.0; all cultures were incubated anaerobically at 37° C. for 72 hours.
This is a standard international method for quantitatively assessing the antimicrobial activity of a compound in a liquid medium. The method used a sterile 96-well microtitre plate, capable of holding about 200 μl of liquid per well. The wells contained liquid culture medium and ranges of decreasing concentrations of the relevant test compound in doubling dilutions (eg, 1000, 500, 250, 125 . . . μg/ml, etc. down to 0.49 μg/ml). The culture media were as described above.
The wells were inoculated with a liquid suspension of freshly grown micro-organism and incubated under the conditions described above. After incubation, the microtitre plate was examined visually (with the aid of a light box) for cloudiness in each well, which would indicate microbial growth. The MIC value was recorded as the lowest concentration of test compound required to inhibit microbial growth, ie, the lowest concentration for which the liquid in the well remained clear.
The assays included both negative (culture medium with no micro-organisms) and positive (culture medium plus diluting solvent plus micro-organism) controls.

C. striatum NCTC 764 = experiment: (S)DDA disc diffusion; assay type: cell-based, Corynebacterium striatum; details: for DDA: 200 μg per disc
Procedure: Several Corynebacterium test species were also used in this study, namely C. mucifaciens ATCC 700355, C. striatum NCTC 764, C. xerosis NCTC 11861 and C. jeikeium NCTC 11915. These Gram-positive pathogens are closely related to organisms (aerobic diphtheroids of the genus Corynebacterium) that cause body odour. C. mucifaciens and C. striatum were cultured and maintained on Mueller-Hinton Medium (agar and broth) and were incubated aerobically at 37° C. for 24 hours. C. xerosis and C. jeikeium were cultured and maintained on Mueller-Hinton Medium containing 5% (v/v) lysed horse blood (agar and broth) and were incubated aerobically at 37° C. for 72 hours. A sterile paper disc was impregnated with a sample of the test compound in a suitable solvent and 30 minutes allowed for the solvents to evaporate (where possible). The disc was then placed on an agar plate onto which the test micro-organism had been inoculated. The plate was then incubated under the conditions described above, following which it was examined visually for signs of microbial growth. If the test compound had antimicrobial activity, a circular zone of no growth would be obtained around the disc. The diameter of this zone of “inhibition” was measured using a ProtoCOL™ automated zone sizer (Synbiosis, Cambridge, UK). In general, a greater diameter and/or area of the zone of inhibition indicates a greater antimicrobial activity in the relevant test compound, although other factors such as test compound mobility through the agar gel may also influence the result. Two test a compounds A and B were placed on a single paper disc and the above described DDA procedure repeated. An increase in diameter of the zone of inhibition, compared to the greater of the zone diameters for the two compounds individually, was taken to indicate potential antimicrobial synergy. In practical terms, an increase of greater than 5 mm could be treated as significant. The activities of DOSS and TCC were determined, using (S)DDAs, against the test organisms C. mucifaciens ATCC 700355, C. striatum NCTC 764, C. xerosis NCTC 11861 and C. jeikeium NCTC 11915. 200 μg of the DOSS and/or the TCC were loaded onto each disc. All the experiments were conducted in triplicate.

P. acnes NCTC 737 [4] = experiment: Disc diffusion / synergy disc diffusion assay ((S)DDA); assay type: cell-based, Propionibacterium acnes; details: for (S)DDA: diluted 1:2 with placebo, 10 μl per disc; for SDDA with DOSS: 200 μg TCC + 50 μg DOSS on one disc
Procedure: as §5, §1, §4
Both the DDA and the SDDA test may be carried out using an agar gel supplemented with lipid and/or salt to simulate some of the major components present in human skin and to assess whether these substances might reduce the antimicrobial activity observed for the test compound. Performance under these conditions can provide a more reliable indication of activity on topical application. The supplements used in Examples 1, 11, 12 and 13 below were lipid (either Tween™ 80 at 1% v/v (Example 1) or triolein at 1% v/v (Examples 11, 12 and 13) and sodium chloride (100 mM).

[5] = 200 μg TCC or 50 μg DOSS per disc
[6] = supplemented with salt (sodium chloride 100 mM) & lipid (Tween 80 1% v/v), 50 μg DOSS or 200 μg TCC per disc
[7] = unsupplemented, 50 μg DOSS or 200 μg TCC per disc
[8] = unsupplemented, with respect to the TCC

dioctyl sodium sulphosuccinate [DOSS]
DDA [1]: 0.0 mm | DDA [2]: 19.74 mm | SDDA area increase (Strep. mutans ATCC 25175): 42.61% | SDDA increase (Strep. mutans ATCC 25175): 4.68 mm | SDDA with TCC (Strep. mutans ATCC 25175; 50 μg DOSS + 200 μg TCC on one disc): 28.78 mm | DDA (Strep. mutans ATCC 25175; [5]): 24.1 mm | DDA (Strep. mutans ATCC 25175; 200 μg per disc): 40.25 mm | MIC (P. acnes NCTC 737 [3]): 15.6 µg/mL | SDDA area increase (C. striatum NCTC 764): 70.79% | SDDA increase (C. striatum NCTC 764): 6.0 mm | SDDA with TCC (C. striatum NCTC 764; 200 μg DOSS + 200 μg TCC on one disc): 25.57 mm | DDA (C. striatum NCTC 764): 19.57 mm | DDA (P. acnes NCTC 737 [4]; 200 μg per disc, pH 6.0, single replicates): 47.63 mm | DDA + salt (P. acnes NCTC 737 [4]; 200 μg per disc, pH 6.0, sodium chloride 100 mM): 45.14 mm | DDA + lipid (P. acnes NCTC 737 [4]; 200 μg per disc, pH 6.0, triolein 1% v/v): 47.32 mm | (S)DDA (P. acnes NCTC 737 [4]; 2.5% w/w DOSS solution (Solutol HS 15/ethanol/water)): 0.00 mm | (S)DDA (P. acnes NCTC 737 [4]; 5% w/w DOSS solution): 31.88 mm | (S)DDA (P. acnes NCTC 737 [4]; 7.5% w/w DOSS solution): 40.52 mm | DDA (P. acnes NCTC 737 [4]; [6]): 0.00 mm | DDA (P. acnes NCTC 737 [4]; [7]): 11.81 mm

O=C(Nc1ccc(Cl)cc1)Nc1ccc(Cl)c(Cl)c1 [TCC, N-(4-chlorophenyl)-N′-(3,4-dichlorophenyl) urea]
DDA [1]: 0.0 mm | DDA [2]: 14.71 mm | DDA (Strep. mutans ATCC 25175; [5]): 11.95 mm | MIC (P. acnes NCTC 737 [3]; Cutibacterium acnes, NCTC737, read-out: MIC): 0.12 µg/mL (≈ 0.38 µM) | DDA (C. striatum NCTC 764): 14.08 mm | DDA (P. acnes NCTC 737 [4]; 200 μg of each test compound per disc (Example 2)): 15.69 mm | (S)DDA (P. acnes NCTC 737 [4]; 0.1% w/w TCC solution): 0.00 mm | (S)DDA (P. acnes NCTC 737 [4]; 0.2% w/w TCC solution): 0.00 mm | (S)DDA (P. acnes NCTC 737 [4]; 0.3% w/w TCC solution): 30.10 mm | SDDA area increase (P. acnes NCTC 737 [4]; supplemented with salt & lipid): ∞ | SDDA increase (P. acnes NCTC 737 [4]; supplemented with salt & lipid): 10.57 mm | SDDA with DOSS (P. acnes NCTC 737 [4]; supplemented with salt & lipid): 10.57 mm | DDA (P. acnes NCTC 737 [4]; [6]): 0.00 mm | DDA (P. acnes NCTC 737 [4]; [7]): 18.76 mm | SDDA with DOSS (P. acnes NCTC 737 [4]; unsupplemented): 29.95 mm | SDDA area increase (P. acnes NCTC 737 [4]; [8]): 154.9% | SDDA increase (P. acnes NCTC 737 [4]; [8]): 11.19 mm
